According to patent US9969755B2, “Photodynamic therapy photosensitizers” (The Royal Institution for the Advancement of …, priority 2016, dated 2018):
Values after ≈ are worked out from the molar mass of the structure shown.

Columns and labels:
[1] = Activation of compounds 7 and 8 with dicumyl peroxide (cumyloxyl radicals); format: physicochemical; settings: 9 with respect to 7; reaction with cumyloxyl radicals/ROS, 1 equivalent sacrificial PMHC
Protocol: Compounds 7 and 8 were oxidized/activated in air equilibrated acetonitrile solution upon photolysis of a 100 μM dicumyl peroxide. Irradiation was performed within a fluorimeter to generate ROS upon exciting with ultraviolet light at 263 nm (2.4 mW/cm^2). The fluorescence intensity at the emission maxima of the probes was monitored over time.
Activation of the dormant photosensitizer 7 or 8 (deactivation of PeT) following their reaction with ROS was subsequently tested in the presence of alkoxyl radicals. These ROS were generated at a constant rate upon photolysis at 263 nm of an air equilibrated 100 μM dicumyl peroxide solution in acetonitrile. We followed over time the increase in fluorescence intensity (drop in PeT) to monitor the extent of activation, see FIG. 16. Activation was complete once the intensity reached a plateau.^28,45 At this point, the trap segment in 7 and 8 reacted to completion with alkoxyl radicals to generate 9 and 10, respectively. […] Deactivation of PeT in the singlet excited state in turn manifested in the ca. 7-fold and 2-fold emission enhancements recorded for 9 vs 7, and 10 vs 8, respectively (FIG. 16).

E. coli ATCC 25922 = experiment: Antibacterial photodynamic inactivation, regular vs hydrogen peroxide stressed bacteria (CFU counts); format: cell-based
Protocol: The microorganism used for this study is E. coli ATCC 25922. Stock cultures were preserved at −70° C. using glycerol 10% (v/v) as the cryoprotectant, and the strain was grown in Luria Bertania broth (LB). Bacterial culture was prepared inoculating a single colony from a pure culture. After overnight incubation at 37° C. for 18 h, the culture reached a density of approximately 1×10^9 CFU/mL and it was diluted to 10^6 CFU/mL.
At the end of the irradiation time, 100 μL aliquots were placed in 96 wells from each tube and serially diluted 10-fold in PBS to obtain dilutions of 10^1 to 10^4 fold, in addition to the original concentration, on agar plates to determine CFU. Viability counts were performed at 0 and 1 hour in either dark or light conditions from each dilution, 10 μL aliquots were plated on LB agar. Plates were streaked in triplicate and incubated for 18 h at 37° C. Each experiment was performed at least three times on different days.
To stress the cells we utilized hydrogen peroxide, known to stimulate ROS production in Gram-negative cells.^79,80 We incubated bacteria from the E. coli strain (10^6 colony forming units (CFU)/mL) with 500 nM hydrogen peroxide for 2 hours at 37° C. Following precipitation and resuspension of this bacteria in media with no H2O2, we added compound 7. In parallel, compound 7 was also added to bacteria that were not exposed to H2O2.

For CC1=C(Br)C(C)=[N+]2C1=C(CC1(C)CCc3c(C)c(O)c(C)c(C)c3O1)c1c(C)c(Br)c(C)n1[B-]2(F)F (centres unmarked) [Compound 7, 8-((6-Hydroxy-2,5,7,8-tetramethylchroman-2-yl)-methyl)-2,6-dibromo-1,3,5,7-tetramethyl], the “enhancement in φΔ^D (^1O2 production) on activation” value [1] was ~40 fold, the “colony forming units after irradiation, stressed cells” value (E. coli ATCC 25922; E. coli incubated with 500 nM hydrogen peroxide 2 h, 1 h irradiation 2.6 mW/cm^2, 520 nm) was “drastic drop in colony forming units” and the MIC (E. coli ATCC 25922; Escherichia coli, ATCC25922, 7 activated in the stressed bacterial suspension (500 nM hydrogen peroxide), 9 pre-activated with dicumyl peroxide, 1 hour, read-out: PD-MIC) was 10 µM (≈ 6.24 µg/mL). For the same molecule, the “colony forming units, dark controls” value (E. coli ATCC 25922; in the dark, 7 with or without H2O2) was “no effect in the CFU” and the “colony forming units after irradiation, non-stressed cells” value (E. coli ATCC 25922; no H2O2, 1 h irradiation 2.6 mW/cm^2, 520 nm) was “No inactivation was observed”.
